Assays:
SSTR4 [1] = target: T1, SSTR4 (Homo sapiens, UniProt P31391); assay: Inhibition of forskolin stimulated cAMP in CHO-K1 cells overexpressing SSTR4; assay type: cell-based; settings: read-out: SSTR4 Activity pEC50 (converted)
T1 construct: host or cells: CHO-K1
How it was run: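 CHO-K1 cells overexpressing SSTR4 treated 30 min at room temperature with compound in Krebs Ringer buffer containing 0.5% BSA, 300 μM IBMX and 350 nM forskolin. Intracellular cAMP measured by HTRF LANCE Ultra (665/615 nm); pEC50 values reported.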

SSTR4 [2] = target: T1, SSTR4; assay: SSTR4 I-125 somatostatin competition binding assay (CHO-K1 membranes); settings: competition with I-125 somatostatin, membranes from CHO-K1 overexpressing SSTR4; read-out: SSTR4 Binding pIC50 (converted)
How it was run: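 CHO-K1 membranes overexpressing SSTR4 (1 μg/well) were incubated 60 min at room temperature with compound and I-125 somatostatin (0.2 nM in the compound mix) in 25 mM HEPES pH 7.4, 10 mM MgCl2, 1 mM CaCl2, 0.5% BSA. Bound radioligand was collected on PEI-soaked filters and scintillation-counted, with results reported as pIC50.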

SSTR1 = target: T2, SSTR1 (Homo sapiens, UniProt P30872); assay: SSTR1 I-125 somatostatin competition binding assay for selectivity versus SSTR1 (CHO-K1 membranes); settings: competition with I-125 somatostatin, membranes from CHO-K1 overexpressing SSTR1; read-out: SSTR1 Binding pIC50 (converted)
T2 construct: purchased Perkin Elmer ES-520-M400UA; host or cells: CHO-K1 membranes
How it was run: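 Competition binding used 10 μg CHO-K1 SSTR1 membranes and I-125 somatostatin, 0.4 nM in the compound mix before membranes were added. Buffer was 25 mM HEPES pH 7.4, 10 mM MgCl2, 1 mM CaCl2, 0.5% BSA. After 60 min at room temperature, bound tracer was filtered onto PEI-soaked filters and counted by scintillation; values are pIC50.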

T1 sequence (P31391 whole entry): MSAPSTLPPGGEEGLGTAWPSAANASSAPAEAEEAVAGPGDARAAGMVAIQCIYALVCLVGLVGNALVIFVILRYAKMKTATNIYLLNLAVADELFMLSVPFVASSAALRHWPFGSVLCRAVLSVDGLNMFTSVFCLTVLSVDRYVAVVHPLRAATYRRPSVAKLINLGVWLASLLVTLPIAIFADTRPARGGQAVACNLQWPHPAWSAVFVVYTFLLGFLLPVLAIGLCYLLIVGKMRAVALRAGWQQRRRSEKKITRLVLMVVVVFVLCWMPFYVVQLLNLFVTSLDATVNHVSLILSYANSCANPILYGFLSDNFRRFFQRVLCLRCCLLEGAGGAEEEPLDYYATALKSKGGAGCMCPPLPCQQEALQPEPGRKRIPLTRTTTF
T2 sequence (P30872 whole entry): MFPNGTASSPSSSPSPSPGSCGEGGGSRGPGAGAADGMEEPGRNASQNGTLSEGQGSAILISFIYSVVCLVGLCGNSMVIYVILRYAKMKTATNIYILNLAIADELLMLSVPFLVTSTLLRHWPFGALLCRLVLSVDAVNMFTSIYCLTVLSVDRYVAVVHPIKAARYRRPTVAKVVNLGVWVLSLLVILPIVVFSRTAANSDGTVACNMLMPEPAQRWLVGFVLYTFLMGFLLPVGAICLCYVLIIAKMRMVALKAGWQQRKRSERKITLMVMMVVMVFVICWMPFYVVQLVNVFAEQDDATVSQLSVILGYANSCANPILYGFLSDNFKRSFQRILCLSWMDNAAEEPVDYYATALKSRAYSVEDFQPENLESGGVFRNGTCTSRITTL

For CC(C)(NC(=O)CCN1CCC1)c1ccc(Cl)cc1 [Example 165, 3-(azetidin-1-yl)-N-(2-(4-chlorophenyl)propan-2-yl)propanamide], the EC50 (SSTR4 [1]) was 10 nM, the IC50 (SSTR4 [2]) was 79.4 nM and the IC50 (SSTR1) was 25100 nM.
Compound Cc1c(F)cccc1C(C)(C)NC(=O)CCN1CCC1 [Example 166, 3-(azetidin-1-yl)-N-(2-(3-fluoro-2-methylphenyl)propan-2-yl)propanamide] has an EC50 (SSTR4 [1]) of 12.6 nM, an IC50 (SSTR4 [2]) of 50.1 nM and an IC50 (SSTR1) of 39800 nM.
In the case of O=C(CCN1CCC1)NC(c1cc(F)ccc1F)C(F)F (stereo not drawn) [Example 167, 3-(azetidin-1-yl)-N-(1-(2,5-difluorophenyl)-2,2-difluoroethyl)propanamide], the EC50 (SSTR4 [1]) is reported as 25.1 nM, the IC50 (SSTR4 [2]) is reported as 251 nM and the IC50 (SSTR1) is reported as greater than 50100 nM.
Compound COc1c(F)cccc1C(C)(C)NC(=O)C(C)CN1CCC1 (stereo not drawn) [Example 170, 3-(azetidin-1-yl)-N-(2-(3-fluoro-2-methoxyphenyl)propan-2-yl)-2-methylpropanamide] has an EC50 (SSTR4 [1]) of 0.794 nM, an IC50 (SSTR4 [2]) of 25.1 nM and an IC50 (SSTR1) of 5010 nM.
Cc1ccc(C(CF)NC(=O)CCN2CCC2)cc1 (stereo not drawn) [Example 173, 3-(azetidin-1-yl)-N-(2-fluoro-1-(p-tolyl)ethyl)propanamide] showed an EC50 (SSTR4 [1]) of 20 nM, an IC50 (SSTR4 [2]) of 200 nM and an IC50 (SSTR1) greater than 50100 nM.
Compound CC(C)[C@@H](CN1CCC1)C(=O)N[C@@H](c1ccccc1)C(F)F [Example 178, (S)-2-(azetidin-1-ylmethyl)-N-((S)-2,2-difluoro-1-phenylethyl)-3-methylbutanamide] has an EC50 (SSTR4 [1]) of 39.8 nM, an IC50 (SSTR4 [2]) of 39.8 nM and an IC50 (SSTR1) of 6310 nM.
CC(C)[C@@H](CN1CCC1)C(=O)N[C@H](c1ccccc1)C(F)F [Example 179, (S)-2-(azetidin-1-ylmethyl)-N-((R)-2,2-difluoro-1-phenylethyl)-3-methylbutanamide] showed an EC50 (SSTR4 [1]) of 0.2 nM, an IC50 (SSTR4 [2]) of 2 nM and an IC50 (SSTR1) of 251 nM.
With CC[C@@H](CN1CCC1)C(=O)N[C@H](c1ccccc1)C(F)F [Example 180, (S)-2-(azetidin-1-ylmethyl)-N-((R)-2,2-difluoro-1-phenylethyl)butanamide] the EC50 (SSTR4 [1]) was 0.126 nM, the IC50 (SSTR4 [2]) was 3.16 nM and the IC50 (SSTR1) was 631 nM.
For COc1ccccc1[C@@H](NC(=O)[C@H](CN1CCC1)C(C)C)C(F)F [Example 188, (S)-2-(azetidin-1-ylmethyl)-N-((R)-2,2-difluoro-1-(2-methoxyphenyl)ethyl)-3-methylbutanamide], the EC50 (SSTR4 [1]) was 0.501 nM, the IC50 (SSTR4 [2]) was 2 nM and the IC50 (SSTR1) was 126 nM.
Compound CC[C@@H](CN1CCC1)C(=O)N[C@H](c1ccccc1OC)C(F)F [Example 189, (S)-2-(azetidin-1-ylmethyl)-N-((R)-2,2-difluoro-1-(2-methoxyphenyl)ethyl)butanamide] has an EC50 (SSTR4 [1]) of 1 nM, an IC50 (SSTR4 [2]) of 7.94 nM and an IC50 (SSTR1) of 631 nM.
Compound CC(C)[C@@H](CN1CCC1)C(=O)N[C@H](c1cccc(F)c1)C(F)F [Example 194, (S)-2-(azetidin-1-ylmethyl)-N-((R)-2,2-difluoro-1-(3-fluorophenyl)ethyl)-3-methylbutanamide] has an EC50 (SSTR4 [1]) of 0.794 nM, an IC50 (SSTR4 [2]) of 2.51 nM and an IC50 (SSTR1) of 631 nM.
For CC[C@@H](CN1CCC1)C(=O)N[C@H](c1cccc(F)c1)C(F)F [Example 195, (S)-2-(azetidin-1-ylmethyl)-N-((R)-2,2-difluoro-1-(3-fluorophenyl)ethyl)butanamide], the EC50 (SSTR4 [1]) was 2 nM, the IC50 (SSTR4 [2]) was 2.51 nM and the IC50 (SSTR1) was 1000 nM.
CC(C)[C@@H](CN1CCC1)C(=O)N[C@H](c1ccc(F)cc1)C(F)F [Example 196, (S)-2-(azetidin-1-ylmethyl)-N-((R)-2,2-difluoro-1-(4-fluorophenyl)ethyl)-3-methylbutanamide] gave an EC50 (SSTR4 [1]) of 0.2 nM, an IC50 (SSTR4 [2]) of 3.16 nM and an IC50 (SSTR1) of 501 nM.
O=C(CCN1CCC1)N[C@H](c1cccc(Cl)c1)C(F)F [Example 202, (R)-3-(azetidin-1-yl)-N-(1-(3-chlorophenyl)-2,2-difluoroethyl)propanamide] gave an EC50 (SSTR4 [1]) of 0.794 nM, an IC50 (SSTR4 [2]) of 20 nM and an IC50 (SSTR1) of 6310 nM.
In the case of CN1CCCC1CC(=O)NC(C)(C)c1nccc2ccccc12 (stereo not drawn) [Example 203, N-(2-(isoquinolin-1-yl)propan-2-yl)-2-(1-methylpyrrolidin-2-yl)acetamide], the EC50 (SSTR4 [1]) is reported as 3.98 nM, the IC50 (SSTR4 [2]) is reported as 158 nM and the IC50 (SSTR1) is reported as 3980 nM.
CC[C@@H](CN1CCC1)C(=O)N[C@H](c1ccc(F)cc1)C(F)F [Example 204, (S)-2-(azetidin-1-ylmethyl)-N-((R)-2,2-difluoro-1-(4-fluorophenyl)ethyl)butanamide] showed an EC50 (SSTR4 [1]) of 0.1 nM, an IC50 (SSTR4 [2]) of 3.16 nM and an IC50 (SSTR1) of 631 nM.

Source: US20230150981A1, “N-HETEROARYLALKYL-2-(HETEROCYCLYL AND HETEROCYCLYLMETHYL) ACETAMIDE DERIVATIVES AS SSTR4 AGONISTS” (Takeda Pharmaceutical Compnay Limited, priority 2020, published 2023)
